The target in data set [1] is T1, σ1 receptor (Cavia porcellus, UniProt Q60492).
T1 construct: from tissue; host or cells: guinea pig brain without cerebellum (male Dunkin guinea pigs, Envigo)
Nature of the data set: σ1 receptor radioligand binding assay with (+)-[3H]pentazocine, guinea pig brain membranes. To be noted: mean of at least two experiments in duplicate, read-out: Ki ± SEM σ1. The procedure: (§1) All of the procedures for the binding assays were previously described. σ1 and σ2 receptor binding assays were carried out according to the literature.[25] […] Incubations were stopped by addition of 1 mL of ice-cold buffer [50 mM TRIS (pH 8.0)], and then the suspension was filtered through GF/B presoaked in 0.3% polyethylenimine (PEI) for at least 60 min prior to use. The filters were washed twice with 1 mL of ice-cold buffer. […] Incubations were stopped by addition of 1 mL of ice-cold buffer [50 mM TRIS (pH 8.0)], and then the suspension was filtered through GF/B presoaked in 0.5% polyethylenimine (PEI) for at least 60 min prior to use. The filters were washed twice with 1 mL of ice-cold buffer. […] Scatchard parameters (Kd and Bmax) and apparent inhibition constants (Ki) were determined by nonlinear curve fitting using GraphPad Prism (version 5.0).[64]

Data set [2] concerns the target T2, σ2 receptor (Rattus norvegicus, UniProt Q5U3Y7).
T2 construct: from tissue; host or cells: rat liver (Wistar Hannover rats, Envigo)
T2 sequence (Q5U3Y7 1-176): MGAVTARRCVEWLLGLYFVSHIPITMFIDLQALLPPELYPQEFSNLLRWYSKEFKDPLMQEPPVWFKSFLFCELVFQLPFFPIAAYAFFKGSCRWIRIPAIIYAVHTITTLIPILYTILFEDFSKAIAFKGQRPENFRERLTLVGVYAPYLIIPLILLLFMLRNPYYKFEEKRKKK
Description: σ2 receptor radioligand binding assay with [3H]DTG, rat liver membranes. The note with it: for Ki: [3H]DTG with 1 μM (+)-pentazocine, rat liver membranes, mean of at least two experiments in duplicate, read-out: Ki ± SEM σ2. On the procedure: as §1

Data set [3] is described as follows: Fluorescence spectroscopy and quantum yield measurements. It counts as physicochemical. The note with it: CHCl3.
The target of data set [4] is T3, σ1 receptor (Homo sapiens, UniProt Q99720).
T3 construct: expressed in transfected cells
T3 sequence (Q99720 whole entry, species assumed): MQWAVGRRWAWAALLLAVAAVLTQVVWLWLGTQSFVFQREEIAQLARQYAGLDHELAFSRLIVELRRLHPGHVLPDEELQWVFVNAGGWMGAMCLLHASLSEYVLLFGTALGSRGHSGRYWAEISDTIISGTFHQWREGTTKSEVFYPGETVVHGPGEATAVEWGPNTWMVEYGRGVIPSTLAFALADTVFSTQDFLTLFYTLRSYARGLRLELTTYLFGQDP
Description: Flow cytometry studies in MCF7σ1 cells. Type of data set: cell-based. Background: A flow cytometer gives signals particle by particle.

In data set [5] the test system is MCF7 cells. Description: Trypan blue assay. Type of data set: cell-based, human. To be noted: conditions of confocal microscopy, data not shown.
In data set [6] the test system is MCF7 cells. Description: Live cell imaging in MCF7 cells. It counts as cell-based, human. To be noted: live cell videos.
Data set [7] in a line: RP-HPLC degradation study in PBS buffer. It counts as physicochemical. The note with it: 37 °C, RP-HPLC over 24 h. The procedure: page 12: Figure S10. RP-HPLC degradation study in buffer of compounds 19 (A) and 29 (B). Compounds were dissolved in a solution of PBS with 5% of DMSO. Then the solution was divided in 4 vials, one was used to study t0 and the other three were incubated at 37 °C for 2h, 6h and 24 h, respectively. […]

Data set [8] concerns the target T4, σ2 receptor (Homo sapiens, UniProt Q5BJF2). Nature of the data set: Flow cytometry saturation binding assay in MCF7 cells. The note with it: σ1 masked by (+)-pentazocine.
Description: Similarly, 2 × 10^5 MCF7 cells/well were seeded in a 12-well plate and allowed to recover for 24 h at 37 °C.
At the end of the incubation periods, cells were washed twice with PBS, detached with 200 mL of Cell Dissociation Solution (Sigma Chemical Co.) for 10 min at 37 °C, centrifuged at 13000g for 5 min, and resuspended in 500 mL of PBS. The fluorescence was recorded using a Bio-Guava easyCyte 5 Flow Cytometry System (Millipore, Billerica, MA), with a 530 nm band-pass filter. For each analysis, 50000 events were collected and analyzed with the InCyte software (Millipore).
Data set [9] concerns the target T4, σ2 receptor. Nature of the data set: Flow cytometry studies in MCF7 and MCF7KO cells. The note with it: for accumulation (mean fluorescence intensity) in MCF7 and MCF7KO cells: 10 nM-10 μM, 45 min, σ1 masked with 10 μM (+)-pentazocine; for signal in MCF7KO cells compared with MCF7 cells: flow cytometry, σ2 receptor partially silenced. It counts as cell-based. On the set-up: This cell line was selected on the basis of its high σ2 receptor expression levels; endogenous in cells; host or cells: MCF7 (and MCF7KO, partial TMEM97 knockdown by shRNA). The procedure:
Subsequently, the cells were harvested by trypsinization and resuspended in 250 μL of FACS-PBS. The fluorescence intensity was measured by flow cytometry using a BD LSRFortessaTM X-20 cell analyzer (Becton Dickinson, Palo Alto, CA). For this, in total 20000 cells per sample were evaluated. The results were analyzed and quantified using BD FACSDivaTM software.

Data set [10] has as its target T4, σ2 receptor. Description: Confocal microscopy, co-localization with σ2 receptor (TMEM97 ab) in fixed MCF7 cells. The note with it: 5 μM, 1 h. Type of data set: cell-based. Also noted: This cell line was selected on the basis of its high σ2 receptor expression levels; endogenous in cells; host or cells: MCF7 (and MCF7KO, partial TMEM97 knockdown by shRNA). The procedure: Subsequently, the cells were treated with the indicated concentrations of 19 or 29 for 1 h at 37 °C. Then, the cells were washed once with PBS, harvested by trypsinization, and resuspended in 1 mL of PBS. Then, the cell preparation for confocal microscopy by using Cytospin was carried out as described by Koh et al.,[75] followed by cell fixation with 4% paraformaldehyde at room temperature for 30 min. For the staining of σ2 receptor expression, cells were permeabilized and blocked with 0.5% Triton X-100 and 1% BSA, respectively, in PBS for 30 min at room temperature followed by incubation of the primary TMEM97 antibody (diluted 1:200 in 1% BSA/0.3% Triton-PBS, Novusbio, catalog no. NBP1-30436) overnight at 4 °C in a wet chamber. The next day, the cells were washed three times with PBS and incubated with a 1:500 dilution of a secondary anti-rabbit AlexaFluor488-labeled antibody (Invitrogen, catalog no. A-11034) for 1 h at room temperature in a wet chamber. After being washed twice with PBS, the cells were incubated with a solution containing DAPI (2.5 μg/mL, D9542) for 15 min at room temperature, followed by three washes with PBS as well as ddH2O and embedding with Vectashield (Vectashield Antifade Mounting Media, Vector Laboratories, caalog no. H-1000-10). […]

Data set [11] addresses T4, σ2 receptor. Description: Spinning disk confocal microscopy on living MCF7 cells. Type of data set: cell-based. Also noted: This cell line was selected on the basis of its high σ2 receptor expression levels; endogenous in cells; host or cells: MCF7 (and MCF7KO, partial TMEM97 knockdown by shRNA). The note with it: for subcellular localization in living MCF7 cells: 0.05 μM, 30 min; for mitochondrial localization upon co-treatment with nonfluorescent DTG: 20 μM DTG. The procedure: MCF7 cells (2.4 × 10^4 cells/well) were seeded on IBIDI slides (coated with polymers, Science Services) and incubated at 37 °C with 5% CO2 for 48 h. Afterward, ProlongLife (Invitrogen, catalog no. P36974) was added in a 1:100 dilution to the cells and incubated for 1 h. Subsequently, the medium was removed, and the cells were stained with 250 nM MitoTracker-Bodipy FL (Invitrogen, catalog no. P36974) in phenol red-free medium for 30 min at 37 °C with 5% CO2. […] In addition, Hoechst 33342 (0.05 μM) was added 15 min prior to measurement to counterstain for nuclei. Finally, z-stacks of the living cells were performed using an Olympus IXplore SpinSR spinning disk confocal microscope. In total, three pictures per spot were obtained. The Cy-5 intensities of the ligands based on the localization of the GFP- signal of the mitochondria were calculated by the commercially available software cellSens from Olympus. Statistical analysis was performed using GraphPad Prism (version 8).

The mark [12] stands for this setting: DTG (20 μM) as non-fluorescent σ2 reference ligand.
[13] abbreviates: compound 2 (10 μM) as non-fluorescent σ2 reference ligand.

For orientation: Ki means a measure of affinity in units of concentration, obtained from inhibition or displacement. As usually defined, the Kd is the equilibrium constant for the complex coming apart. Higher therefore signals weaker binding.

T4 sequence (Q5BJF2 whole entry): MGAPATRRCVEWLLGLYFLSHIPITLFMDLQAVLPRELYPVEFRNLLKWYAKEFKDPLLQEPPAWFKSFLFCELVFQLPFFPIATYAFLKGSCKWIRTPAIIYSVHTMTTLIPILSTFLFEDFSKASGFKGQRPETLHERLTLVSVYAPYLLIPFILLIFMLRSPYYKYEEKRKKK
T1 sequence (Q60492 whole entry): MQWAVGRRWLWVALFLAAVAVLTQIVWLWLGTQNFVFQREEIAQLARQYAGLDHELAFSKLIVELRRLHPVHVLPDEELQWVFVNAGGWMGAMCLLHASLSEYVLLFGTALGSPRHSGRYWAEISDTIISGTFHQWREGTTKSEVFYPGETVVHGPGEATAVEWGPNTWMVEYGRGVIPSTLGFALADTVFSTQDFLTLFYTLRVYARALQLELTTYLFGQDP

For `C[N+]1=C(/C=C/C=C/C=C2\N(CCCCCC(=O)NCCCCCCn3cc(CCCCN4CCC5(CC4)OCc4ccccc45)c4ccccc43)c3ccccc3C2(C)C)C(C)(C)c2ccccc21.[I-]` [Compound 19, 2-{(1E,3E)-5-[(E)-1-{6-[(6-{3-[4-(3H-Spiro[isobenzofuran-1,4′-piperidin]-1′-yl)butyl]-1H-indol-1-yl}hexyl)amino]-6-oxohexyl}-3,3-dimethylindolin-2-ylidene]penta-1,3-dien-1-yl}-1,3,3-trimethyl-3H-indol-1-ium], the Ki on σ1 receptor [1] worked out at 51.3 ± 3.2 nM. The Ki at σ2 receptor [2] worked out at 30.2 ± 3.5 nM. In [3], the quantum yield stood at 52.86%, the λem amounted to 678 nm and the λex was 657 nm. In addition, the “uptake in MCF7σ1 cells upon administration of (+)-pentazocine” value at σ1 receptor [4] (σ2 masked with 2 (10 μM), (+)-pentazocine 10 μM) was “abated”. Also, the “fluorescent signal in MCF7σ1 cells” value at σ1 receptor [4] (σ2 receptor masked with 10 μM compound 2) was “dose-dependent increase”. Also, in the data set on MCF7 cells [5], the cytotoxicity result is “neither 19 nor 29 was cytotoxic”. Further, the “entry into living MCF7 cells” value in the data set with MCF7 cells [6] is “rapid entry”. For the same molecule, in data set [7], the stability result is reported as “stability of the two compounds was demonstrated”. In addition, on σ2 receptor [8] (setting [12]), the Kd was 13.6 nM. On σ2 receptor [8] (setting [13]), this molecule showed a Kd of 19.3 nM. In addition, at σ2 receptor [9], the “accumulation (mean fluorescence intensity) in MCF7 and MCF7KO cells” value was “dose-dependent manner”; the “signal in MCF7KO cells compared with MCF7 cells” value is given as “visibly weaker”. Further, the “subcellular localization versus σ2 receptor distribution (TMEM97ab)” value at σ2 receptor [10] is “overlapped with the σ2 receptor distribution”. Moreover, on σ2 receptor [11], the “subcellular localization in living MCF7 cells” value is reported as “mitochondrial localization” and the “mitochondrial localization upon co-treatment with nonfluorescent DTG” value was “significantly reduced”.
Consider `C[N+]1=C(/C=C/C=C/C=C2/N(CCCCCC(=O)Nc3ccc4ccn(CCCCN5CCC6(CC5)OCc5ccccc56)c4c3)c3ccccc3C2(C)C)C(C)(C)c2ccccc21.[I-]` [Compound 29, 2-[(1E,3E)-5-{(Z)-1-[6-({1-[4-(3H-Spiro[isobenzofuran-1,4′-piperidin]-1′-yl)butyl]-1H-indol-6-yl}amino)-6-oxohexyl]-3,3-dimethylindolin-2-ylidene}penta-1,3-dien-1-yl]-1,3,3-trimethyl-3H-indol-1-ium], for which, at σ1 receptor [1], the inhibition constant Ki stood at 448 ± 80 nM. Moreover, the inhibition constant Ki on σ2 receptor [2] was 51.1 ± 5.1 nM. Further, at σ2 receptor [2] (from Ki values at σ1 and σ2), the “σ2 selectivity over σ1” value was approximately 10 fold. In data set [3], this molecule gave a quantum yield of 47.83%, a λem of 678 nm and a λex of 657 nm. Besides, the cytotoxicity result with MCF7 cells [5] was “neither 19 nor 29 was cytotoxic”. Also, the “entry into living MCF7 cells” value with MCF7 cells [6] is on record as “rapid entry”. In addition, the stability entry in data set [7] is recorded as “stability of the two compounds was demonstrated”. The molecule also yielded an equilibrium dissociation constant (Kd) at σ2 receptor [8] (setting [12]) of 18.7 nM. This molecule also had a Kd at σ2 receptor [8] (setting [13]) of 13.8 nM. For the same molecule, on σ2 receptor [9], the “accumulation (mean fluorescence intensity) in MCF7 and MCF7KO cells” value was “dose-dependent manner”; the “signal in MCF7KO cells compared with MCF7 cells” value was “visibly weaker”. Also, at σ2 receptor [10], the “subcellular localization versus σ2 receptor distribution (TMEM97ab)” value is recorded as “overlapped with the σ2 receptor distribution”. For the same molecule, at σ2 receptor [11], the “subcellular localization in living MCF7 cells” value is given as “mitochondrial localization” and the “mitochondrial localization upon co-treatment with nonfluorescent DTG” value is reported as “significantly reduced”.

Source of the values: PMC10041534, “Development of Fluorescent 4-[4-(3H-Spiro[isobenzofuran-1,4′-piperidin]-1′-yl)butyl]indolyl Derivatives as High-Affinity Probes to Enable the Study of σ Receptors via Fluorescence-Based Techniques” (Journal of Medicinal Chemistry, 2023).
